In paper PMC5107945, “Abscinazole-E3M, a practical inhibitor of abscisic acid 8′-hydroxylase for improving drought tolerance” (Scientific Reports, 2016):

Legend:
[1] = test system: ABA-responsive genes ZmLEA, Zm.12309.1.S and ZmCOR410; experiment: qRT-PCR of ABA-responsive genes in maize; assay type: in vivo, Maize (cv. Gold rush); conditions: maize 2-week-old seedlings, roots dipped in 100 μM overnight, aerial shoot tissues
Method: The effects of (-)-Abz-[…] were also determined relative to stomatal apertures. Arabidopsis grown in soil pots underwent moderate drought stress under the optimal growth conditions of 22 °C and 60% relative humidity. Under these growth conditions, the leaf surface temperature of the mock-treated controls was 19.5 °C, which was lower than the surrounding atmospheric temperature because of transpirational water loss (Fig. 6a,b)[30]. […] Finally, we examined the effects of (-)-Abz-[…] on drought tolerance under more practical conditions. Three-week-old Arabidopsis were sprayed with an aqueous solution containing 50 μM (-)-Abz-[…]. Water was not supplied for 12 days, and then the plants were rehydrated. […] We also tested the effects of (-)-Abz-[…] on a monocot crop, maize, to evaluate whether (-)-Abz-[…] affected stomatal movement and enhanced ABA response across plant species. […] Thus, the effects of (-)-Abz-[…] were not restricted to the model plant Arabidopsis. Figure 7 Effects of (-)-Abz-[…] on maize. (a) Thermal images of the leaf surface temperatures of (-)-Abz-[…]-treated maize plants. (b) Leaf surface temperatures of (-)-Abz-[…]-treated maize plants. The stomatal conductance (c) and transpiration rate (d) in (-)-Abz-[…]-treated maize at different light intensities. […] Values are means with s.d. (n = 4 for leaf surface temperature, n = 3 for stomatal conductance and transpiration rate). […]

[2] = test system: maize stomatal movement; experiment: Thermal imaging and transpirational water loss analysis in maize; assay type: in vivo; conditions: 10 mL of 100 μM sprayed per plant, overnight
Method: The effects of (-)-Abz-[…] were also determined relative to stomatal apertures. Arabidopsis grown in soil pots underwent moderate drought stress under the optimal growth conditions of 22 °C and 60% relative humidity. Under these growth conditions, the leaf surface temperature of the mock-treated controls was 19.5 °C, which was lower than the surrounding atmospheric temperature because of transpirational water loss (Fig. 6a,b)[30]. […] Finally, we examined the effects of (-)-Abz-[…] on drought tolerance under more practical conditions. Three-week-old Arabidopsis were sprayed with an aqueous solution containing 50 μM (-)-Abz-[…]. Water was not supplied for 12 days, and then the plants were rehydrated. […] We also tested the effects of (-)-Abz-[…] on a monocot crop, maize, to evaluate whether (-)-Abz-[…] affected stomatal movement and enhanced ABA response across plant species. […] Thus, the effects of (-)-Abz-[…] were not restricted to the model plant Arabidopsis. Figure 7 Effects of (-)-Abz-[…] on maize. (a) Thermal images of the leaf surface temperatures of (-)-Abz-[…]-treated maize plants. (b) Leaf surface temperatures of (-)-Abz-[…]-treated maize plants. The stomatal conductance (c) and transpiration rate (d) in (-)-Abz-[…]-treated maize at different light intensities. […] Values are means with s.d. (n = 4 for leaf surface temperature, n = 3 for stomatal conductance and transpiration rate). (e) Effects of (-)-Abz-[…] on endogenous ABA levels. (f) Expression levels of ZmLEA, Zm.12309.1.S and ZmCOR410 after the (-)-Abz-[…] treatment. […] After an overnight incubation, the conductance and transpiration rate were analysed using an LI-6400 (Li-Cor Biosciences), and the leaf surface temperatures were measured using a thermal imaging camera ([…], Nippon Avionics Co., Ltd.) in the glass house. Temperatures on the leaf surfaces were analysed by NS9200 software (Nippon Avionics Co., Ltd.).

abscinazole-E3M [(−)-6]
Expression of ABA-responsive genes ZmLEA, Zm.12309.1.S and ZmCOR410 [1]: induced the expression of ABA-responsive genes | Leaf surface temperature [2]: increased the leaf surface temperature | Stomatal conductance [2]: suppressed | Transpiration rate [2]: suppressed
